Source: US10626103B2, “Inhibitor of lysine specific demethylase-1” (CELGENE QUANTICEL RESEARCH, INC., priority 2014, dated 2020)

What was measured:
[1] = system: CD11b expression in THP-1 (AML) cells; experiment: LSD1 CD11b cellular assay (flow cytometry); format: cell-based; settings: Homo sapiens, 96 h, THP-1 cells, 4 days
Procedure: To analyze LSD1 inhibitor efficacy in cells, a CDL11b flow cytometry assay was performed. LSD1 inhibition induces CD11b expression in THP-1 (AML) cells which can be measured by flow cytometry. […] LSD 1 test compounds were serially diluted in DMSO. The dilutions were added to each well accordingly to a final concentration of 0.2% DMSO. The cells were incubated at 37 degrees Celsius in 5% CO2 for 4 days. 250 μL of each well was transferred to a well in a 96 well round bottom plate. The plate was centrifuged at 1200 rpm at 4 degrees Celsius in a Beckman Coulter Alegra 6KR centrifuge for 5 minutes. The media was removed leaving the cells at the bottom of the wells. The cells were washed in 100 μL cold HBSS (Hank's Balanced Salt Solution) plus 2% BSA (Bovine Serum Albumin) solution and centrifuged at 1200 rpm at 4 degrees Celsius for 5 minutes. The wash was removed. […] The cells were centrifuged and washed two times in 100 μl HBSS plus 2% BSA. After the final spin the cells were resuspended in 100 μL HBSS plus 2% BSA containing 1 ug/mL DAPI (4′,6-diamidino-2-phenylindole). The cells were then analyzed by flow cytometry in a BD FACSAria machine. Cells were analyzed for CD11b expression. The percent of CD11b expressing cells for each inhibitor concentration was used to determine an IC50 curve for each compound analyzed.

full-length human LSD1 = full-length human LSD1 (Homo sapiens (Human), UniProt O60341); experiment: In vitro enzyme inhibition assay LSD-1 (TR-FRET); format: biochemical; settings: H3K4me1-biotin peptide
Procedure: This assay determines the ability of a test compound to inhibit LSD1 demethylase activity.
The enzymatic assay of LSD1 activity is based on Time Resolved-Fluorescence Resonance Energy Transfer (TR-FRET) detection.
Plates were read by EnVision Multilabel Reader in TR-FRET mode (excitation at 320 nm, emission at 615 nm and 665 nm) after 1 hour incubation at room temperature.
The ability of the compounds disclosed herein to inhibit LSD1 activity was quantified and the respective IC50 value was determined.

| SMILES | IC50 [1] [nM] | IC50 (full-length human LSD1) [nM] |
| --- | --- | --- |
| CN(C)[C@H]1CCN(C(=O)c2nc(-c3ccc(C#N)c(F)c3)n(-c3ccc4nn(C)c(Cl)c4c3)c2F)C1 [Example 58, 4-[1-(3-Chloro-2-methylindazol-5-yl)-4-[(3S)-3-(dimethylamino)pyrrolidine-1-carbonyl]-5-fluoroimidazol-2-yl]-2-fluorobenzonitrile] | < 100 | < 100 |
| N#Cc1ccc(-c2nc(C(=O)N3CCC[C@@H](N)C3)c(Cl)n2-c2ccc(C3CC3)nc2)cc1F [Example 80, 4-[4-[(3R)-3-Aminopiperidine-1-carbonyl]-5-chloro-1-(6-cyclopropylpyridin-3-yl)imidazol-2-yl]-2-fluorobenzonitrile] | 100 to 1000 | < 100 |
| Cc1c(C(=O)N2CCC(N)CC2)nc(-c2ccc(C#N)c(F)c2)n1-c1ccc2nn(C)cc2c1 [Example 43, 4-[4-(4-Aminopiperidine-1-carbonyl)-5-methyl-1-(2-methylindazol-5-yl)imidazol-2-yl]-2-fluorobenzonitrile] | 100 to 1000 | < 100 |
| Cc1ccc(-c2c(-c3ccc(C#N)c(F)c3)cc(C(=O)N3CCC[C@@H](N)C3)n2CCCO)cc1 [Example 9] | < 100 | < 100 |
| CN[C@H]1CCN(C(=O)c2nc(-c3ccc(C#N)c(F)c3)n(-c3ccc(OC)cc3)c2C)C1 [Example 69, 2-Fluoro-4-[1-(4-methoxyphenyl)-5-methyl-4-[(3S)-3-(methylamino)pyrrolidine-1-carbonyl]imidazol-2-yl]benzonitrile] | < 100 | < 100 |
| Cn1cc2cc(-c3c(-c4ccc(C#N)c(F)c4)cc(C(=O)N[C@@H]4CCNC4)n3C)ccc2n1 [Example 30, N-((3R)pyrrolidin-3-yl)[4-(4-cyano-3-fluorophenyl)-1-methyl-5-(2-methyl(2H-indazol-5-yl))pyrrol-2-yl]carboxamide] | < 100 | < 100 |
| COc1ccc(-n2c(-c3ccc(C#N)c(F)c3)nc(C(=O)N[C@H]3CCCNC3)c2Cl)cc1F [Example 85, 5-Chloro-2-(4-cyano-3-fluorophenyl)-1-(3-fluoro-4-methoxyphenyl)-N-[(3S)-piperidin-3-yl]imidazole-4-carboxamide] | 100 to 1000 | < 100 |
| CN[C@@H]1CCCN(C(=O)c2cn(-c3ccc(OC)cc3)c(-c3ccc(C#N)c(F)c3)n2)C1 [Example 72, 2-Fluoro-4-[1-(4-methoxyphenyl)-4-[(3R)-3-(methylamino)piperidine-1-carbonyl]imidazol-2-yl]benzonitrile] | < 100 | < 100 |
| Cn1cc2cc(-n3c(-c4ccc(C#N)c(F)c4)nc(C(=O)N4CCC[C@@H](N)C4)c3F)ccc2n1 [Example 77, 4-[4-[(3R)-3-Aminopiperidine-1-carbonyl]-5-fluoro-1-(2-methylindazol-5-yl)imidazol-2-yl]-2-fluorobenzonitrile] | < 100 | < 100 |
| COc1ccc(-n2cc(C(=O)N3CCC[C@@H](N)C3)nc2-c2ccc(C#N)c(F)c2)cc1F [Example 19, 4-[4-[(3R)-3-aminopiperidine-1-carbonyl]-1-(3-fluoro-4-methoxyphenyl)imidazol-2-yl]-2-fluorobenzonitrile] | < 100 | < 100 |
| CN[C@@H]1CCCN(C(=O)c2nc(-c3ccc(C#N)c(F)c3)n(-c3ccc4nn(C)cc4c3)c2C)C1 [Example 98, 2-Fluoro-4-[5-methyl-4-[(3R)-3-(methylamino)piperidine-1-carbonyl]-1-(2-methylindazol-5-yl)imidazol-2-yl]benzonitrile] | < 100 | < 100 |
| Cc1c(C(=O)N(C)CCN)nc(-c2ccc(C#N)c(F)c2)n1-c1ccc2nn(C)cc2c1 [Example 44, N-(2-Aminoethyl)-2-(4-cyano-3-fluorophenyl)-N,5-dimethyl-1-(2-methylindazol-5-yl)imidazole-4-carboxamide] | < 100 | < 100 |
| Cc1c(C(=O)N[C@@H]2CCCN(C)C2)nc(-c2ccc(C#N)c(F)c2)n1-c1ccc2nn(C)c(Cl)c2c1 [Example 56, 1-(3-Chloro-2-methylindazol-5-yl)-2-(4-cyano-3-fluorophenyl)-5-methyl-N-[(3R)-1-methylpiperidin-3-yl]imidazole-4-carboxamide] | < 100 | < 100 |
| Cc1ccc(-c2c(-c3ccc(C#N)cc3)cc(C(=O)N3CCC[C@@H](N)C3)n2C)cn1 [Example 5, 4-[5-(3-(R)-amino-piperidine-1-carbonyl)-1-methyl-2-(6-methyl-pyridin-3-yl)-1H-pyrrol-3-yl]-benzonitrile] | < 100 | < 100 |
| Cc1c(C(=O)N[C@@H]2CCCNC2)nc(-c2ccc(C#N)c(F)c2)n1-c1ccc2nn(C)c(Cl)c2c1 [Example 117, 1-(3-Chloro-2-methylindazol-5-yl)-2-(4-cyano-3-fluorophenyl)-5-methyl-N-[(3R)-piperidin-3-yl]imidazole-4-carboxamide] | < 100 | < 100 |
| Cc1c2cc(-n3c(-c4ccc(C#N)c(F)c4)nc(C(=O)N[C@@H]4CCCNC4)c3C)ccc2nn1C [Example 104, 2-(4-Cyano-3-fluorophenyl)-1-(2,3-dimethylindazol-5-yl)-5-methyl-N-[(3R)-piperidin-3-yl]imidazole-4-carboxamide] | < 100 | < 100 |
| Cc1ccc(-c2c(-c3ccc(C#N)cc3)cc(C(=O)N3CCC[C@@H](N)C3)n2CCO)cc1 [Example 3, 4-[5-(3-(R)-amino-piperidine-1-carbonyl)-1-(2-hydroxy-ethyl)-2-p-tolyl-1H-pyrrol-3-yl]-benzonitrile] | < 100 | < 100 |
| N#Cc1ccc(-c2nc(C(=O)N3CC[C@H](N)C3)c(Cl)n2-c2ccc(C3CC3)nc2)cc1F [Example 81, 4-[4-[(3S)-3-Aminopyrrolidine-1-carbonyl]-5-chloro-1-(6-cyclopropylpyridin-3-yl)imidazol-2-yl]-2-fluorobenzonitrile] | < 100 | < 100 |
| COCCn1c(C(=O)N2CCC[C@@H](N)C2)cc(-c2ccc(C#N)c(F)c2)c1-c1ccc2nn(C)cc2c1 [Example 36, (R)-4-(5-(3-aminopiperidine-1-carbonyl)-1-(2-methoxyethyl)-2-(2-methyl-2H-indazol-5-yl)-1H-pyrrol-3-yl)-2-fluorobenzonitrile] | < 100 | < 100 |
| COc1ccc(-c2c(-c3ccc(C#N)c(F)c3)cc(C(=O)N3CCC[C@@H](N)C3)n2CCO)cc1 [Example 8, 4-[5-(3-(R)-amino-piperidine-1-carbonyl)-1-(2-hydroxy-ethyl)-2-(4-methoxy-phenyl)-1H-pyrrol-3-yl]-2-fluoro-benzonitrile] | < 100 | < 100 |
| CN[C@@H]1CCCN(C(=O)c2nc(-c3ccc(C#N)c(F)c3)n(-c3ccc4nn(C)c(C)c4c3)c2C)C1 [Example 105, 4-[1-(2,3-Dimethylindazol-5-yl)-5-methyl-4-[(3R)-3-(methylamino)piperidine-1-carbonyl]imidazol-2-yl]-2-fluorobenzonitrile] | < 100 | < 100 |
| Cc1c(C(=O)N2CC[C@H](N(C)C)C2)nc(-c2ccc(C#N)c(F)c2)n1-c1ccc2c(cnn2C)c1 [Example 95, 4-[4-[(3S)-3-(Dimethylamino)pyrrolidine-1-carbonyl]-5-methyl-1-(1-methylindazol-5-yl)imidazol-2-yl]-2-fluorobenzonitrile] | < 100 | < 100 |
